Laboratory results reported in ChEMBL document CHEMBL1201862, “PubChem BioAssay data set” (2004).
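Each compound was tested at five concentrations against cells in 96-well plates for 48 hours. GI50 marks 50% less growth.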 The source made the active and inactive calls. Cut-off read from the data, not from the text of the source: active = GI50 up to about 1.1 µM and inactive = higher.

What was measured:
Experiment in all cases: NCI tumour cell line growth inhibition, 48 h
A549 = test system: A549
ACHN = test system: ACHN
CAKI-1 = test system: CAKI-1
CCRF-CEM = test system: CCRF-CEM
COLO 205 = test system: COLO 205
HCT-15 = test system: HCT-15
HL-60 = test system: HL-60
IGROV-1 = test system: IGROV-1
K562 = test system: K562
MDA-MB-231 = test system: MDA-MB-231
MDA-N = test system: MDA-N
MOLT-4 = test system: MOLT-4
NCI-H226 = test system: NCI-H226
NCI-H23 = test system: NCI-H23
OVCAR-3 = test system: OVCAR-3
RPMI-8226 = test system: RPMI-8226
SF-295 = test system: SF-295
SNB-19 = test system: SNB-19
T47D = test system: T47D
UACC-257 = test system: UACC-257

SMILES: COC1=C(NC(C)=O)C(=O)c2nc3n(c2C1=O)CCC3
- GI50 (A549): 27.3 µM (inactive)
- GI50 (ACHN): 19.9 µM (inactive)
- GI50 (CAKI-1): 18.3 µM (inactive)
- GI50 (CCRF-CEM): 3.78 µM (inactive)
- GI50 (COLO 205): 21.4 µM (inactive)
- GI50 (HCT-15): 23.4 µM
- GI50 (HL-60): 10.1 µM (inactive)
- GI50 (IGROV-1): 19.3 µM (inactive)
- GI50 (K562): 26.7 µM (inactive)
- GI50 (MDA-MB-231): 13.3 µM (inactive)
- GI50 (MDA-N): 2.83 µM (inactive)
- GI50 (MOLT-4): 4.06 µM (inactive)
- GI50 (NCI-H226): 26.7 µM (inactive)
- GI50 (NCI-H23): 20.4 µM (inactive)
- GI50 (OVCAR-3): 15.7 µM (inactive)
- GI50 (RPMI-8226): 24.4 µM (inactive)
- GI50 (SF-295): 20.5 µM (inactive)
- GI50 (SNB-19): 26.7 µM (inactive)
- GI50 (T47D): 34.3 µM (inactive)
- GI50 (UACC-257): 16.6 µM (inactive)

SMILES: COc1ccc(NC2Oc3cc4c(cc3C(c3cccc(OC)c3OC)C2C)OCO4)cc1 (stereo not given)
- GI50 (A549): 5.53 µM (inactive)
- GI50 (ACHN): 4.59 µM (inactive)
- GI50 (CAKI-1): 3.72 µM (inactive)
- GI50 (CCRF-CEM): 3.61 µM (inactive)
- GI50 (COLO 205): 6.14 µM (inactive)
- GI50 (HCT-15): 2.96 µM
- GI50 (HL-60): 3.22 µM (inactive)
- GI50 (IGROV-1): 8.75 µM (inactive)
- GI50 (K562): 4.21 µM (inactive)
- GI50 (MDA-MB-231): 16.7 µM (inactive)
- GI50 (MDA-N): 7.89 µM (inactive)
- GI50 (MOLT-4): 2.9 µM (inactive)
- GI50 (NCI-H226): 6.82 µM (inactive)
- GI50 (NCI-H23): 11.9 µM (inactive)
- GI50 (OVCAR-3): 5.35 µM (inactive)
- GI50 (RPMI-8226): 11.4 µM (inactive)
- GI50 (SF-295): 3.73 µM (inactive)
- GI50 (SNB-19): 53.3 µM (inactive)
- GI50 (T47D): 5.08 µM (inactive)
- GI50 (UACC-257): 4.46 µM (inactive)

SMILES: Cc1ccccc1N(C)S(=O)(=O)c1ccccc1[N+](=O)[O-]
- GI50 (A549): 45.9 µM (inactive)
- GI50 (ACHN): 81.8 µM (inactive)
- GI50 (CAKI-1): 59.3 µM (inactive)
- GI50 (CCRF-CEM): 35.8 µM (inactive)
- GI50 (COLO 205): 13.1 µM (inactive)
- GI50 (HCT-15): 57.9 µM
- GI50 (HL-60): 27.9 µM (inactive)
- GI50 (IGROV-1): > 100 µM (inactive)
- GI50 (K562): 28.7 µM (inactive)
- GI50 (MDA-MB-231): 22.3 µM (inactive)
- GI50 (MDA-N): 45.5 µM (inactive)
- GI50 (MOLT-4): 27.9 µM (inactive)
- GI50 (NCI-H226): 33.1 µM (inactive)
- GI50 (NCI-H23): 31.5 µM (inactive)
- GI50 (OVCAR-3): 46.3 µM (inactive)
- GI50 (RPMI-8226): 30.1 µM (inactive)
- GI50 (SF-295): 42.5 µM (inactive)
- GI50 (SNB-19): 67.8 µM (inactive)
- GI50 (T47D): 58.1 µM (inactive)
- GI50 (UACC-257): 57 µM (inactive)

SMILES: COc1ccc2c(c1)C(=O)C1(C2)[C@H](c2ccccc2)C2C(=O)c3cc(OC)ccc3C2[C@H]1c1ccccc1 (stereo not given in full)
- GI50 (A549): > 100 µM (inactive)
- GI50 (ACHN): > 100 µM (inactive)
- GI50 (CAKI-1): 1.75 µM (inactive)
- GI50 (CCRF-CEM): 73.5 µM (inactive)
- GI50 (COLO 205): > 100 µM (inactive)
- GI50 (HCT-15): > 100 µM
- GI50 (HL-60): 6.21 µM (inactive)
- GI50 (IGROV-1): > 100 µM (inactive)
- GI50 (K562): > 100 µM (inactive)
- GI50 (MDA-MB-231): > 100 µM (inactive)
- GI50 (MDA-N): > 100 µM (inactive)
- GI50 (MOLT-4): > 100 µM (inactive)
- GI50 (NCI-H226): > 100 µM (inactive)
- GI50 (NCI-H23): 15.1 µM (inactive)
- GI50 (OVCAR-3): > 100 µM (inactive)
- GI50 (RPMI-8226): 43.7 µM (inactive)
- GI50 (SF-295): > 100 µM (inactive)
- GI50 (SNB-19): > 100 µM (inactive)
- GI50 (T47D): > 100 µM (inactive)
- GI50 (UACC-257): > 100 µM (inactive)

SMILES: Cc1ccc2[nH]c3c(c2c1)C1CCC(C(C)(C)C)CC1C1C(=O)N(c2ccc(Oc4ccccc4)cc2)C(=O)C31 (stereo not given)
- GI50 (A549): 16.3 µM (inactive)
- GI50 (ACHN): 22.6 µM (inactive)
- GI50 (CAKI-1): 12.7 µM (inactive)
- GI50 (CCRF-CEM): 2.63 µM (inactive)
- GI50 (COLO 205): 13.5 µM (inactive)
- GI50 (HCT-15): 56.8 µM
- GI50 (HL-60): 2.57 µM (inactive)
- GI50 (IGROV-1): 30.8 µM (inactive)
- GI50 (K562): 8.91 µM (inactive)
- GI50 (MDA-MB-231): 20.3 µM (inactive)
- GI50 (MDA-N): 50 µM (inactive)
- GI50 (MOLT-4): 2.77 µM (inactive)
- GI50 (NCI-H226): 29.4 µM (inactive)
- GI50 (NCI-H23): 19.3 µM (inactive)
- GI50 (OVCAR-3): 11.5 µM (inactive)
- GI50 (RPMI-8226): 15.8 µM (inactive)
- GI50 (SF-295): 26.6 µM (inactive)
- GI50 (SNB-19): 16.2 µM (inactive)
- GI50 (T47D): 16.2 µM (inactive)
- GI50 (UACC-257): > 100 µM (inactive)

SMILES: C[C@H](Nc1nc(N)c(N=O)c(=O)n1C)C(=O)O
- GI50 (A549): > 10 µM (inactive)
- GI50 (ACHN): > 10 µM (inactive)
- GI50 (CAKI-1): > 10 µM (inactive)
- GI50 (CCRF-CEM): > 10 µM (inactive)
- GI50 (COLO 205): > 10 µM (inactive)
- GI50 (HCT-15): > 10 µM
- GI50 (HL-60): > 10 µM (inactive)
- GI50 (IGROV-1): > 10 µM (inactive)
- GI50 (K562): > 10 µM (inactive)
- GI50 (MDA-MB-231): > 10 µM (inactive)
- GI50 (MDA-N): > 10 µM (inactive)
- GI50 (MOLT-4): > 10 µM (inactive)
- GI50 (NCI-H226): > 10 µM (inactive)
- GI50 (NCI-H23): > 10 µM (inactive)
- GI50 (OVCAR-3): > 10 µM (inactive)
- GI50 (RPMI-8226): > 10 µM (inactive)
- GI50 (SF-295): > 10 µM (inactive)
- GI50 (SNB-19): > 10 µM (inactive)
- GI50 (T47D): > 10 µM (inactive)
- GI50 (UACC-257): > 10 µM (inactive)

SMILES: Clc1ccc2c(NCCNc3ccnc4cc(Cl)ccc34)ccnc2c1
- GI50 (A549): 18.5 µM (inactive)
- GI50 (ACHN): 17.8 µM (inactive)
- GI50 (CAKI-1): 20.2 µM (inactive)
- GI50 (CCRF-CEM): 14.6 µM (inactive)
- GI50 (COLO 205): 14.6 µM (inactive)
- GI50 (HCT-15): 15.6 µM
- GI50 (HL-60): 14.6 µM (inactive)
- GI50 (IGROV-1): 18.2 µM (inactive)
- GI50 (K562): 12.3 µM (inactive)
- GI50 (MDA-MB-231): 17 µM (inactive)
- GI50 (MDA-N): 17.1 µM (inactive)
- GI50 (MOLT-4): 17.4 µM (inactive)
- GI50 (NCI-H226): 37.9 µM (inactive)
- GI50 (NCI-H23): 17.1 µM (inactive)
- GI50 (OVCAR-3): 15.1 µM (inactive)
- GI50 (RPMI-8226): 20.6 µM (inactive)
- GI50 (SF-295): 13.3 µM (inactive)
- GI50 (SNB-19): 20.1 µM (inactive)
- GI50 (T47D): 23.6 µM (inactive)
- GI50 (UACC-257): 17.9 µM (inactive)
